{"source": "paper PMC4558140", "about": "“Irreversible dual inhibitory mode: the novel Btk inhibitor PLS-123 demonstrates promising anti-tumor activity in human B-cell lymphoma” (Oncotarget, 2015)", "biological_target": "Btk (Homo sapiens, UniProt Q06187)", "sequence (Q06187 2-659)": "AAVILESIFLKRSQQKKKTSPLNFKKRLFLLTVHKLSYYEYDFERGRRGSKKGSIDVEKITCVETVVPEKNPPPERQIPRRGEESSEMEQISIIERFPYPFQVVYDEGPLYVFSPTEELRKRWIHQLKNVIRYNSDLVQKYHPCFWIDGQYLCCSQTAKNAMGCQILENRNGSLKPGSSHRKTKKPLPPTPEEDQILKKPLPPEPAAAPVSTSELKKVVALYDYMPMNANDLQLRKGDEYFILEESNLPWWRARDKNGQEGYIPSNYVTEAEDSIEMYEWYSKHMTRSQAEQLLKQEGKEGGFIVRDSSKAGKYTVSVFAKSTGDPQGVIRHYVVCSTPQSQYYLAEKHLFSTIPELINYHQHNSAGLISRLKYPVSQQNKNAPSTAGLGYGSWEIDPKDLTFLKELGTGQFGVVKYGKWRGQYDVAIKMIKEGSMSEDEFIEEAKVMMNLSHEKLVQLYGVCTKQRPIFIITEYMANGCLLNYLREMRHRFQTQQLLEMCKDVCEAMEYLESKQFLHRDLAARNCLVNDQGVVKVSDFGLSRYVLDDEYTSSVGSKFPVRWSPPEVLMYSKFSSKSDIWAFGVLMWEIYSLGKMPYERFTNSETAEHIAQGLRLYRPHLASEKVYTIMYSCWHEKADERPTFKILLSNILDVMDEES", "test": "crystal structure of human Btk in complex with PLS-123 (Figure 1B); IC50 also stated; Western blot of p-Tyr223/p-Tyr551 Btk in cells", "assay_type": "binding", "from_the_text": "crystal structure of human Btk in complex with PLS-123 (Figure 1B); IC50 also stated; Western blot of p-Tyr223/p-Tyr551 Btk in cells on Btk | Crystal structure of the human Btk in complex with PLS-123."}
{"smiles": "C=CC(=O)NCC(=O)Nc1cccc(Nc2ncc(NC(=O)c3cc(NC(=O)c4cccc(C(F)(F)F)c4)ccc3C)cn2)c1", "note": "[PLS-123]", "values": [{"measurement": "IC50", "result": "< 5", "unit": "nM"}]}
